“Also recorded” adds a separate entry of the source. Square brackets hold non-standard residues; d marks the D form. Peptide text beside a SMILES is read from it. Ahx = NCCCCCC(=O)O

Consider two compounds from PMC4624780 (PLoS ONE, 2015).

This assay concerns FMDV 3A protein homodimerization in BHK-21 cells. It counts as cell-based, foot-and-mouth disease virus (FMDV).

On to RRRRRRRXFFEGMVHDS [Peptide R7-α1], for which the “3A dimerization (PLA fluorescent dots relative to cells incubated with no peptide)” value was “decreasing trend; also recorded: higher inhibitions”.

For the compound `CC[C@H](C)[C@H](NC(=O)[C@H](CC(C)C)NC(=O)[C@@H]1CCCN1C(=O)[C@H](CCCNC(=N)N)NC(=O)[C@H](CC(C)C)NC(=O)[C@H](CCC(=O)O)NC(=O)CCCCCNC(=O)[C@H](CCCNC(=N)N)NC(=O)[C@H](CCCNC(=N)N)NC(=O)[C@H](CCCNC(=N)N)NC(=O)[C@H](CCCNC(=N)N)NC(=O)[C@H](CCCNC(=N)N)NC(=O)[C@H](CCCNC(=N)N)NC(=O)[C@@H](N)CCCNC(=N)N)C(=O)N[C@@H](CCC(N)=O)C(=O)N[C@@H](CCC(N)=O)C(N)=O` [Peptide R7-α2] (H-RRRRRRR[Ahx]ELRPLIQQ-NH2; N-terminus assumed), the “3A dimerization (PLA fluorescent dots relative to cells incubated with no peptide)” value was “lack of effect”.
